Source: patent US7964560B2, “Hepatitis C virus inhibitors” (Bristol-Myers Squibb Company, priority 2008, dated 2011)
Where two headings read alike, the source gives them in different places.

How the values were obtained:
human liver cathepsin B = target: T1, human liver cathepsin B (Homo sapiens, UniProt P07858); assay: Specificity assay, cathepsin B; assay type: biochemical
T1 construct: purchased Sigma, EMDbiosciences; host or cells: human liver
Experimental: (§1) The specificities of compounds of the present disclosure were determined against a variety of serine proteases: human neutrophil elastase (HNE), porcine pancreatic elastase (PPE) and human pancreatic chymotrypsin and one cysteine protease: human liver cathepsin B. In all cases a 96-well plate format protocol using a fluorometric Amino-Methyl-Coumarin (AMC) substrate specific for each enzyme was used as described previously (PCT Patent Application No. WO 00/09543) with some modifications to the serine protease assays. All enzymes were purchased from Sigma, EMDbiosciences while the substrates were from Bachem, Sigma and EMDbiosciences.
(§2) Compound concentrations varied from 100 to 0.4 μM depending on their potency. The enzyme assays were each initiated by addition of substrate to enzyme-inhibitor pre-incubated for 10 min at room temperature and hydrolysis to 15% conversion as measured on CYTOFLUOR®.
100 mM NaOAC (Sodium Acetate) pH 5.5, 3% DMSO, 1 mM TCEP (Tris(2-carboxyethyl)phosphine hydrochloride), 5 nM Cathepsin B (enzyme stock activated in buffer containing 20 mM TCEP before use), and 2 μM Z-FR-AMC diluted in H2O.
(§3) The percentage of inhibition was calculated using the formula: [1−((UVinh−UVblank)/(UVctl−UVblank))]×100
(§4) A non-linear curve fit was applied to the inhibition-concentration data, and the 50% effective concentration (IC50) was calculated by the use of Excel XLfit software.

[1] = target: T2, HCV NS3/4A protease complex, BMS strain (UniProt P27958, species not given/STRAIN_BMS); assay: FRET peptide assay to monitor HCV NS3/4A proteolytic activity (BMS strain); assay type: biochemical, Hepatitis C virus (genotype 1a); settings: Table 2, NS3/4A BMS strain, numeric values
T2 construct: said of H77 and J4L6S; fused on or other part: three-lysine solubilising tail at the end of NS4A (printed for the H77 and J4L6S constructs; probably the same for BMS)
From the text: (§5) HCV […] protease complexes, derived from the BMS strain, H77 strain or J4L6S strain, were generated, as described below. These purified recombinant proteins were generated for use in a homogeneous assay (see below) to provide an indication of how effective compounds of the present disclosure would be in inhibiting HCV NS3 proteolytic activity.
(§6) Serum from an HCV-infected patient was obtained from Dr. T. Wright, San Francisco Hospital. An engineered full-length cDNA (compliment deoxyribonucleic acid) template of the HCV genome (BMS strain) was constructed from DNA fragments obtained by reverse transcription-PCR (RT-PCR) of serum RNA (ribonucleic acid) and using primers selected on the basis of homology between other genotype 1a strains. From the determination of the entire genome sequence, a genotype 1a was assigned to the HCV isolate according to the classification of Simmonds et al. (See Simmonds, P. et al., J. Clin. Microbiol., 31(6), 1493-1503 (1993)). […] The infectious clones, H77 (1a genotype) and J4L6S (1b genotype) were obtained from R. Purcell (NIH) and the sequences are published in GENBANK® (AAB67036, see Yanagi, M. et al., Proc. Natl. Acad. Sci. U.S.A., 94(16):8738-8743 (1997); AF054247, see Yanagi, M. et al., Virology, 244(1):161-172 (1998)).
(§7) The H77 and J4L6S strains were used for production of recombinant NS3/4A protease complexes. DNA encoding the recombinant HCV NS3/4A protease complex (amino acids 1027 to 1711) for these strains were manipulated as described by P. Gallinari et al. (see Gallinari, P. et al, Biochemistry, 38(17):5620-5632 (1999)). Briefly, a three-lysine solubilizing tail was added at the 3′-end of the NS4A coding region. The cysteine in the P1 position of the NS4A-NS4B cleavage site (amino acid 1711) was changed to a glycine to avoid the proteolytic cleavage of the lysine tag. Furthermore, a cysteine to serine mutation was introduced by PCR at amino acid position 1454 to prevent the autolytic cleavage in the NS3 helicase domain. The variant DNA fragment was cloned in the pET21b bacterial expression vector (Novagen) and the NS3/4A complex was expressed in Escherichia. coli strain BL21 (DE3) (Invitrogen) following the protocol described by P. Gallinari et al. (see Gallinari, P. et al., J. Virol., 72(8):6758-6769 (1998)) with modifications. Briefly, the NS3/4A protease complex expression was induced with 0.5 millimolar (mM) Isopropyl β-D-1-thiogalactopyranoside (IPTG) for 22 hours (h) at 20° C. A typical fermentation (1 Liter (L)) yielded approximately 10 grams (g) of wet cell paste. The cells were resuspended in lysis buffer (10 mL/g) consisting of 25 mM N-(2-hydroxyethyl)piperazine-N′-(2-ethane sulfonic acid) (HEPES), pH 7.5, 20% glycerol, 500 mM sodium chloride (NaCl), 0.5% Triton X-100, 1 microgram/milliliter (“μg/mL”) lysozyme, 5 mM magnesium chloride (MgCl2), 1 μg/ml DnaseI, 5 mM β-mercaptoethanol (βME), protease inhibitor-ethylenediamine tetraacetic acid (EDTA) free (Roche), homogenized and incubated for 20 minutes (min) at 4° C. The homogenate was sonicated and clarified by ultra-centrifugation at 235000 g for 1 hour (h) at 4° C. Imidazole was added to the supernatant to a final concentration of 15 mM and the pH adjusted to 8.0. The crude protein extract was loaded on a Nickel-Nitrilotriacetic acid (Ni-NTA) column pre-equilibrated with buffer B (25 mM HEPES, pH 8.0, 20% glycerol, 500 mM NaCl, 0.5% Triton X-100, 15 mM imidazole, 5 mM βME). The sample was loaded at a flow rate of 1 mL/min. The column was washed with 15 column volumes of buffer C (same as buffer B except with 0.2% Triton X-100). The protein was eluted with 5 column volumes of buffer D (same as buffer C except with 200 mM Imidazole).
(§8) NS3/4A protease complex-containing fractions were pooled and loaded on a desalting column Superdex-S200 pre-equilibrated with buffer D (25 mM HEPES, pH 7.5, 20% glycerol, 300 mM NaCl, 0.2% Triton X-100, 10 mM βME). Sample was loaded at a flow rate of 1 mL/min. […]
T2 sequence (P27958 1027-1657, stated change not applied, one chain of several): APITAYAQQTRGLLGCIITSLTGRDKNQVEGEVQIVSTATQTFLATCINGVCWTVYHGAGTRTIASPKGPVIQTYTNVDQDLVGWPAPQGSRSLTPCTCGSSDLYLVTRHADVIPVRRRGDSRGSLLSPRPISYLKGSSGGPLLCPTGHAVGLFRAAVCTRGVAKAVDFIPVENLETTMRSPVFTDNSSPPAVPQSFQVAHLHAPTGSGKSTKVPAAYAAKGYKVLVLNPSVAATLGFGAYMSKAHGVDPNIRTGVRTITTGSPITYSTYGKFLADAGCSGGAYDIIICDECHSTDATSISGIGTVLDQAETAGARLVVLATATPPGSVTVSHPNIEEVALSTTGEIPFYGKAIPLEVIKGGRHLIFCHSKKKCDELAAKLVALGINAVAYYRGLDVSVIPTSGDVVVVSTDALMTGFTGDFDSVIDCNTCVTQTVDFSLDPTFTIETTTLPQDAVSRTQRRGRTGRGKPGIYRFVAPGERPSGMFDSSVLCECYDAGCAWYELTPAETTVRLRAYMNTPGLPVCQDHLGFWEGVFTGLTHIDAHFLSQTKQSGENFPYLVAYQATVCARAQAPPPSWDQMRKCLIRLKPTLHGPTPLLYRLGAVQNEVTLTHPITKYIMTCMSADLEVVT

[2] = target: T3, HCV NS3/4A protease complex, BMS strain (UniProt P27958, species not given/STRAIN_BMS); assay: as above; assay type: biochemical, Hepatitis C virus (genotype 1a); settings: read-out: IC50 against the NS3/4A BMS strain in the enzyme assay; BMS strain
T3 construct: other: BMS strain; said of H77 and J4L6S; fused on or other part: three-lysine solubilising tail at the end of NS4A (printed for the H77 and J4L6S constructs; probably the same for BMS)
From the text: as §5, §6, §7, §8
T3 sequence (P27958 1027-1657, stated change not applied, one chain of several): as above

[3] = target: T4, human pancreatic chymotrypsin (Homo sapiens, UniProt P17538); assay: Specificity assay, chymotrypsin; assay type: biochemical
T4 construct: purchased Sigma, EMDbiosciences
Experimental: as §1, §2
50 mM Tris(hydroxymethyl)aminomethane hydrochloride (Tris-HCl) pH 8, 0.5 M Sodium Sulfate (Na2SO4), 50 mM NaCl, 0.1 mM EDTA, 3% DMSO, 0.01% Tween-20 with 5 μM LLVY-AMC and 1 nM Chymotrypsin.
as §3, §4

T4 sequence (P17538 19-263): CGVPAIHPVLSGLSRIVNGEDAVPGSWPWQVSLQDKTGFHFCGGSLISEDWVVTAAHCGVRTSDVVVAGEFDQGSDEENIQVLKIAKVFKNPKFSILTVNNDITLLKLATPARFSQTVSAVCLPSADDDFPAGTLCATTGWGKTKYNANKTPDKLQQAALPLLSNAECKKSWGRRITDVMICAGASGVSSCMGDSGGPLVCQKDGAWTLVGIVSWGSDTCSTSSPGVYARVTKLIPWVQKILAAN

C=C[C@@H]1C[C@]1(NC(=O)[C@@H]1C[C@@](SCCCC)(c2ccc(-c3ccccc3)cc2)CN1C(=O)[C@@H](NC(=O)OC(C)(C)C)C(C)(C)C)C(=O)NS(=O)(=O)C1CC1 [Example 1, tert-butyl (S)-1-((2S,4R)-4-(biphenyl-4-yl)-4-(butylthio)-2-((1R,2S)-1-(cyclopropylsulfonylcarbamoyl)-2-vinylcyclopropylcarbamoyl)pyrrolidin-1-yl)-3,3-dimethyl-1-oxobutan-2-ylcarbamate]
IC50 (human liver cathepsin B): 7.5 µM
IC50 [1]: 0.003 µM
IC50 [2]: 0.0046 µM
IC50 [3]: 13.2 µM
